Measured values published in US10709790B2, “Chemical conjugates of Evans Blue derivatives and their use in the production of long-acting therapeutics” (THE UNITED STATES OF AMERICA, AS REPRESENTED BY THE …, priority 2015, dated 2020).

Legend:
[1] = test system: blood glucose; assay: Plasma glucose levels in Type 2 diabetic cynomolgus monkeys; type: in vivo; settings: one-time s.c. injection; Abextide II 165 ug/kg, albiglutide 0.9 mg/kg; compared to placebo
Experimental: (§1) The efficacy and pharmacokinetics of MEB-C3-Cys40-Extendin 4 (Abextide II) was studied in primates. Nine Type 2 diabetic cynomolgus monkeys were separated into 3 groups and each group was injected with one of albiglutide (positive control, 0.9 mg/kg), Abextide II (165 μg/kg), or a saline placebo, as a one-time subcutaneous injection. The structure of Abextide II is shown below.
(§2) Plasma glucose levels and body weight were measured, and an intravenous glucose tolerance test (IVGTT) was also performed to assess the efficacy and pharmacokinetics of the compounds.

[2] = test system: plasma glucose; assay: Intravenous glucose tolerance test (IVGTT) in Type 2 diabetic cynomolgus monkeys; type: in vivo; settings: plasma glucose at 0, 5, 15 and 30 min; 2 hours after treatment vs one week before
Experimental: as §1, §2
Intravenous glucose tolerance test was performed on all animals one week before (baseline) and 2 hours after treatment. […] The areas under curve (AUCs) of the plasma glucose level at 0, 5, 15 and 30 min were calculated to quantify IVGTT.

Albiglutide
reduction of blood glucose level [1]: unable to reduce blood glucose level
IVGTT area under curve (AUC) of plasma glucose level versus baseline before treatment [2]: significant differences were not observed
